These results are taken from ChEMBL document CHEMBL3813599, “Identification of small-molecule compounds targeting the dishevelled PDZ domain by virtual screening and binding studies” (Bioorg Med Chem, 2016).

As usually defined, the Kd is a measure of binding affinity in units of concentration.

For experiment [1], the target named is T1, Segment polarity protein dishevelled homolog DVL-1 (Homo sapiens) (UniProt O14640).
T1 sequence (whole entry): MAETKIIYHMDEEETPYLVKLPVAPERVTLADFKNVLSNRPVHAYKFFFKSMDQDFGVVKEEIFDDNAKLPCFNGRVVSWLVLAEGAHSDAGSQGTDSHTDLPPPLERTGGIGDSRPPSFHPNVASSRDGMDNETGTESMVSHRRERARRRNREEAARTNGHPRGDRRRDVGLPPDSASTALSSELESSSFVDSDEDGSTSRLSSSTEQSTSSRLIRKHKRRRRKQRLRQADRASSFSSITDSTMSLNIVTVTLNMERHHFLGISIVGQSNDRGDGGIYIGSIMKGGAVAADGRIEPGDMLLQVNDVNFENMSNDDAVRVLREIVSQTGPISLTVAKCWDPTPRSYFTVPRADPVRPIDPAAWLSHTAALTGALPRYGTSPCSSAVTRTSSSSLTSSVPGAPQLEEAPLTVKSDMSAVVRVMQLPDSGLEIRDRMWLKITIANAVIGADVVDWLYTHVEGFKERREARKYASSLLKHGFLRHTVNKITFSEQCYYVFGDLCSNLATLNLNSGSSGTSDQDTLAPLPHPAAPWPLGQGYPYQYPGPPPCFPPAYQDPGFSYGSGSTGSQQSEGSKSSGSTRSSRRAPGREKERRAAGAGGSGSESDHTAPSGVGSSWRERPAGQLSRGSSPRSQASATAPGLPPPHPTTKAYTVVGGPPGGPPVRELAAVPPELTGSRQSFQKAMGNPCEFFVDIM
Description: Binding affinity to His-tagged Dvl-1 PDZ domain (247 to 337 residues) (unknown origin) expressed in Escherichia coli BL21 (DE3) assessed as chemical shift perturbations at 1:0 to 1:20 protein-compound ratio by 1H-15N-HSQC NMR analysis.

Experiment [2] has as its target T2, Segment polarity protein dishevelled homolog DVL-1 (Homo sapiens, UniProt O14640).
T2 sequence (O14640 whole entry): T1 sequence (whole entry)
Description: Binding affinity to His-tagged Dvl-1 PDZ domain (247 to 337 residues) (unknown origin) expressed in Escherichia coli BL21 (DE3) assessed as dissociation rate by SPR analysis. (SPR reads the build-up and loss of mass on a sensor chip optically.)

Experiment [3] addresses T2, Segment polarity protein dishevelled homolog DVL-1. Kind of experiment: Binding affinity to His-tagged Dvl-1 PDZ domain (247 to 337 residues) (unknown origin) expressed in Escherichia coli BL21 (DE3) by SPR analysis.
Experiment [4] deals with T1, Segment polarity protein dishevelled homolog DVL-1 (Homo sapiens).
Description: Binding affinity to His-tagged Dvl-1 PDZ domain (247 to 337 residues) (unknown origin) expressed in Escherichia coli BL21 (DE3) assessed as association rate by SPR analysis
The target in experiment [5] is T3, Segment polarity protein dishevelled homolog DVL-1 (Mus musculus, UniProt P51141).
T3 sequence (P51141 whole entry): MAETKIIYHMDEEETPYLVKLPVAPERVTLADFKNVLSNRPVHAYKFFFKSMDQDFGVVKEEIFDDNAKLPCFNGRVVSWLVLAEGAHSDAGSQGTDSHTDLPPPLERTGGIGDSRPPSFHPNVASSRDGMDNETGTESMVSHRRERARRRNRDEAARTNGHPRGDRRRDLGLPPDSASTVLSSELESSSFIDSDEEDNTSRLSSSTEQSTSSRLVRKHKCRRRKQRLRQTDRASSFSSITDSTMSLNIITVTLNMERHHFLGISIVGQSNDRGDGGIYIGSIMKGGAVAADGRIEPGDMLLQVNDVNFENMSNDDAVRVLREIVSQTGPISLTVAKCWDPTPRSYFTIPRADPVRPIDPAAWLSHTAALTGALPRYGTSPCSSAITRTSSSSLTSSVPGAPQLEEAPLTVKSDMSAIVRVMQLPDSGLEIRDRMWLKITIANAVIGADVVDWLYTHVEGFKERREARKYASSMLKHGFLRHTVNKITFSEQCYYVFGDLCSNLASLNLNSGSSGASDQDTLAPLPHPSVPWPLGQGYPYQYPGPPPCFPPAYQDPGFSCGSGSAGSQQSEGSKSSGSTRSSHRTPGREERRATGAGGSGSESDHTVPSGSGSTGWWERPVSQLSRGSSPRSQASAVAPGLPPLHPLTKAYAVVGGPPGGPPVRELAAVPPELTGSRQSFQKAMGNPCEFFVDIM
Description: Binding affinity to TMR-linked 15N-labeled mouse Dvl-1 domain ( 247 to 341 residues) by fluorescence spectroscopy.

Activity calls are given as the source filed them. The calls are words filed in the database; no cut-off is given here.

Take `COc1cc(/C=C2\Sc3ccccc3C2=O)ccc1OCC(=O)O`: the outcome in experiment [1] was Active. Moreover, the “Dissociation rate constant (koff)” value in experiment [2] was 6.22 ×10⁻¹ /s. Further, the affinity in experiment [3], expressed as Kd, was 268 µM. In experiment [4], this compound registered a Ka of 2.32 ×10³ /M/s.
As to `COC(=O)COc1ccc(/C=C2\Sc3ccccc3C2=O)cc1`, the “Dissociation rate constant (koff)” value in experiment [2] is 2.51 s⁻¹. In experiment [3], the affinity, expressed as Kd, was 783 µM. Further, the Ka in experiment [4] was determined as 3.2 ×10³ /M/s.
In experiment [5], `CC(C)[C@H](OC(=O)[C@H](C)NC(=O)[C@@H](OC(=O)[C@H](C)NC(=O)OC(C)(C)C)C(C)C)C(=O)O` had a Kd of 237 µM.
Take `O=C(O)Cc1coc2cc(OS(=O)(=O)c3ccc(Cl)cc3F)ccc12`: the “Dissociation rate constant (koff)” value in experiment [2] stood at 1.45 s⁻¹. Further, in experiment [3], the Kd turned out to be 139 µM. In experiment [4], this compound returned a Ka of 1.04 ×10⁴ /M/s.
`COC(=O)CN1C(=O)S/C(=C/c2ccc(-c3cccc(C(=O)O)c3C)o2)C1=O` gave a Kd in experiment [3] of 251 µM. For the same compound, the Ka in experiment [4] was found to be 4.68 ×10⁶ /M/s.
`O=C(O)C1CCN(C(=O)c2cc(-c3ccc(Cl)s3)nc3ccccc23)CC1`: the “Dissociation rate constant (koff)” value in experiment [2] is on record as 1.7 ×10¹ /s. In addition, binding in experiment [3] was put at a Kd of 311 µM. This compound also gave a Ka in experiment [4] of 5.47 ×10⁴ /M/s.
In the case of `CCCN1C(=O)/C(=C/c2ccc(OCC(=O)O)c(Cl)c2)NC1=S`, in experiment [2], the “Dissociation rate constant (koff)” value is on record as 3.81 ×10⁻¹ /s. Further, the affinity in experiment [3], expressed as Kd, was 152 µM. The compound further came in with a Ka in experiment [4] of 2.5 ×10³ /M/s.
